Earlier results on three molecules are cited in patent US8007545B2, “Deodorant compositions” (Kao Corporation, priority 2005, dated 2011).

Molecules are shown by their SMILES.

The term log P denotes a log measure of how a compound divides between an organic and an aqueous phase.

For the data set the following is noted: 1-octanol/water; actual database value or C log P.
For the molecule `CCCCCCOC(CO)COCC(O)CO` (stereo not drawn) [b3-1, Glyceryl ether monohexyl ether], the “log P” value is 1.1.
As for `CCCCC(CC)COCC(O)CO` (stereo not drawn) [b3-2, 2-Ethylhexyl monoglyceryl ether], the “log P” value is 2.0.
Consider `CCCCOCCOCCO` [b3-3, Diethylene glycol monobutyl ether], for which the log partition coefficient (log P) was 0.6.
